The values below come from US5679712A, “Substituted benzoylguanidines, process for their preparation, their use as a pharmaceutical or diagnostic, and pharmaceutical containing them” (priority 1995, dated 1997).

Where a name gives a salt, the structure may show the parent alone.

In assay [1] the target is T1, Na^+ /H^+ exchanger of rabbit erythrocytes (Oryctolagus cuniculus, UniProt P23791).
T1 construct: endogenous in cells; host or cells: erythrocytes (whole blood samples) of New Zealand White rabbits (Ivanovas) fed 2% cholesterol
Nature of the assay: Inhibition of the Na^+/H^+ exchanger of rabbit erythrocytes (amiloride-sensitive sodium influx, flame photometry). The class given is cell-based, rabbit (New Zealand White). Particulars: cholesterol-fed rabbits, hyperosmolar salt/sucrose medium, pH 7.4, 37° C. The text has this:
Inhibition of the Na^+ /H^+ exchanger of rabbit erythrocytes
New Zealand White rabbits (Ivanovas) were given a standard diet containing 2% cholesterol for six weeks in order to activate Na^+ /H^+ exchange and thus to be able to determine, by flame photometry, the influx of Na^+ into the erythrocytes by way of Na^+ /H^+ exchange. The blood was removed from the aural arteries and rendered incoagulable with 25 IU of potassium heparin. A portion of each sample was used to determine the hematocrit in duplicate by centrifugation. Aliquots of 100 μl in each case were used for measuring the initial content of Na^+ in the erythrocytes.
In order to determine the amiloride-sensitive sodium influx, 100 μl of each blood sample were in each case incubated in 5 ml of a hyperosmolar salt/sucrose medium (mmol/l: 140 NaCl, 3 KCl, 150 sucrose, 0.1 ouabain, 20 tris-hydroxymethylaminomethane) at pH 7.4 and 37° C. After that, the erythrocytes were washed three times with ice-cold MgCl2 /ouabain solution (mmol/l: 112 MgCl2, 0.1 ouabain), and hemolyzed in 2.0 ml of distilled water. The intracellular content of sodium was determined by flame photometry.
The net influx of Na^+ was calculated from the difference between the initial sodium values and the sodium content of the erythrocytes following incubation. The amiloride-inhibitable sodium influx was obtained from the difference in the sodium content of the erythrocytes following incubation with and without 3×10^-4 mol/l amiloride. The same procedure was used for the compounds according to the invention.

Another assay deals with rats' hearts. Particulars: isolated rat hearts; cited from earlier work.

T1 sequence (P23791 whole entry): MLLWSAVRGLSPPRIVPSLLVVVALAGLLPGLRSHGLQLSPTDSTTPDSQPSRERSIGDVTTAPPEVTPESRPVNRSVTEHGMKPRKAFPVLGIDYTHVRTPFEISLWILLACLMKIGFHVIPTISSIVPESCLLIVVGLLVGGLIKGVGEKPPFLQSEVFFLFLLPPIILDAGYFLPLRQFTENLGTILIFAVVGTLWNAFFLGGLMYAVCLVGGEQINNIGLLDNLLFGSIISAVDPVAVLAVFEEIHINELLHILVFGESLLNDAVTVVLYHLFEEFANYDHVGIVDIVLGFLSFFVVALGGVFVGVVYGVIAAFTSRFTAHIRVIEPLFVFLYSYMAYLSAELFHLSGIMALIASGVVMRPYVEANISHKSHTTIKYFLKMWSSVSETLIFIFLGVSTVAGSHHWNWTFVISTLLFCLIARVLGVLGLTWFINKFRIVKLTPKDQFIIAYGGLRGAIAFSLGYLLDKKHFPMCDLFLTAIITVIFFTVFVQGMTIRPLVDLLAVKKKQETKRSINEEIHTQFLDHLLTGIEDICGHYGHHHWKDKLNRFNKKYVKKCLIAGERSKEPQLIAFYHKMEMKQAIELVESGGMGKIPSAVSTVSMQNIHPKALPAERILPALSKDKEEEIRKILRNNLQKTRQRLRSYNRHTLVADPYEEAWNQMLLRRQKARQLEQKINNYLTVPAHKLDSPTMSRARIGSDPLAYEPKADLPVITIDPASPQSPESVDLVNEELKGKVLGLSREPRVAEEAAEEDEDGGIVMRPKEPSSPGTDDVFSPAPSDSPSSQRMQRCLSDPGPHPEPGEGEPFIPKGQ

As to `CC(=O)c1cc(C(=O)N=C(N)N)ccc1O` [Example 1, 3-Acetyl-4-hydroxybenzoylguanidine], in assay [1], the IC50 (usually the concentration needed to halve the response being measured) worked out at 2000 nM. On the same count and under the same terms, to `CC(=O)c1cc(C(=O)N=C(N)N)ccc1OC(C)C` [Example 3, 3-Acetyl-4-isopropoxybenzoylguanidine hydrochloride] belongs 1100 nM. Regarding `CCN(c1nc(N)c(C(=O)NC(=N)N)nc1Cl)C(C)C` [ethylisopropylamiloride], the “potency relative to amiloride, ventricular fibrillation model” value in the assay with rats' hearts is “even more potent than amiloride itself”. Consider `COc1ccc(C(=O)N=C(N)N)cc1C(C)=O` [Example 2, 3-Acetyl-4-methoxybenzoylguanidine hydrochloride], for which the half-inhibitory concentration (IC50) in assay [1] was found to be 1000 nM. As to `CC(=O)c1cc(C(=O)N=C(N)N)ccc1OCc1ccccc1` [Example 4, 3-Acetyl-4-benzyloxybenzoylguanidine hydrochloride], the concentration for half-maximal inhibition (IC50) in assay [1] was 1200 nM.
